In PMC9011347, “Small-Molecule Inhibitors Targeting Lipolysis in Human Adipocytes” (Journal of the American Chemical Society, 2022):

Columns and labels:
rhesus monkey ATGL = test: TAG hydrolase assay, Expi293 lysates expressing ATGL orthologue; format: biochemical; details: NG-497 50 μM
From the text: (§1) We previously developed Atglistatin (Ai), a selective inhibitor of mouse ATGL,[31],[32] which is ineffective against human ATGL.[17] Ai acts as a competitive inhibitor targeting the minimal active domain of ATGL ranging from aa 1–254.[33] This domain is highly conserved in different mammalian species (∼90% identity, Table 1) and comprises the patatin-like domain, eponymous for all members of the patatin-like phospholipase domain-containing (PNPLA) protein family.[34] We first investigated the species selectivity of Ai by performing TAG hydrolase assays[35] with lysates from Expi293 cells expressing ATGL orthologues of different species. The activity of ATGL is strongly stimulated by the co-activator protein comparative gene identification-58 (CGI-58, also known as α/β hydrolase domain containing 5, ABHD5)[36] and can be suppressed by the inhibitory protein G0/G1 switch 2 (G0S2).[37] We therefore determined ATGL activity in the presence and absence of mouse CGI-58, mouse G0S2, and Ai. As shown in Figure 1a–i, all ATGL orthologues were expressed, enzymatically active, stimulated by mouse CGI-58, and inactivated by mouse G0S2. Ai inhibited mouse (Figure 1a), rat (Figure 1b), goat (Figure 1c), dog (Figure 1e), and marmoset ATGL (Figure 1f), but not pig (Figure 1d), rhesus monkey (Figure 1g), or human ATGL (Figure 1h).
(§2) Experimental details, materials, and methods
(§3) Expression of recombinant ATGL constructs and preparation of cell lysates. Expi293 cells were cultivated in Expi293 Expression Medium (GIBCO, Thermo Fisher Scientific, Waltham, USA) at standard conditions (37°C, 5% CO2, 95% humidified atmosphere, 125 rpm). DNA constructs containing ATGL from different species and chimeric ATGL variants in pcDNA3.1(+)myc-His C Vector were obtained from BioCat GmbH (Heidelberg, Germany). Cells were transfected with ExpiFectamine293 Transfection Kit (GIBCO) in Opti-Mem reduced serum medium (GIBCO) according to the manufacturer’s instructions. After 48 h, cells were harvested by centrifugation and washed three times with PBS. Cells were disrupted in buffer A (0.25 M sucrose, 1 mM EDTA, 1 mM dithiothreitol, 20µg/ml leupeptin, 2 µg/ml antipain, 1 µg/ml pepstatin, pH 7.0) by sonication (Virsonic 475, Virtis, Gardiner, USA). Nuclei and debris were removed by centrifugation at 1,000 g and 4°C for 10 min. Protein concentrations were determined using Bio-Rad protein assay (Bio-Rad 785, Bio-Rad Laboratories, Munich, Germany) using BSA as standard.
(§4) Expression and purification of mouse CGI-58. CGI-58 was expressed and purified as described 1. In brief, the coding sequence of mouse Cgi-58 was cloned into pHis-Sumo and co-transformed with the plasmid pTf16 expressing the chaperone Tig into E. coli BL21(DE3). Cells were cultured overnight at 37°C and 180 rpm in the presence of 40 µg/ml kanamycin and 34 µg/ml chloramphenicol. Thereafter, cells were transferred into fresh LB medium, grown until OD600 of 0.6, and expression was induced by the addition of 0.5 mM IPTG. After overnight incubation at 30°C, cells were harvested at 4,500 x g and 4°C for 20 min, washed in 1x PBS, and resuspended in lysis buffer (20 mM Tris/HCl pH 7.8, 300 mM NaCl, 30 mM imidazole, 0.1% IGEPAL CA-630, 3.5 mM β-mercaptoethanol, 20 µg/ml leupeptin, 2 µg/ml antipain and 1 µg/ml pepstatin). Cells were incubated with 1 mg/ml lysozyme at 4°C for 20 min, disrupted by sonication, and lysates were centrifuged at 30,000 x g and 4°C for 40 min. His-CGI-58 was purified from the supernatant using an ÄKTA pure system (Cytiva, Uppsala, Sweden) equipped with a 5 ml HisTrap […]
(§5) Expression and purification of mouse G0S2. Chemically competent E. coli ArcticExpress (DE3) cells were transformed with the pST50-SMT3-TEV-mG0S2-His expression plasmid, plated on LB agar plates containing 100 ampicillin, and incubated […] overnight at 37°C. The next day, 10 ml LB medium supplemented with 100 μg/ml ampicillin, 20 μg/ml gentamycin and 2% glucose were inoculated with a single colony and incubated overnight at 37°C. […]

pig ATGL = test: as above; format: biochemical; details: NG-497 50 μM
From the text: as §1, §2, §3, §4, §5

For `CCOc1ccc(-c2cc(OC)cc(C(=O)OC(C)C)n2)cc1` [NG-497], the “inhibition of ATGL orthologue” value (rhesus monkey ATGL) was “inactivates” and the “reduction in TAG hydrolase activity” value (pig ATGL) was “less than 20%”.
